Entries after “also recorded” stand apart in the source; their conditions may differ.
What was measured:
BAG3 full length = biological target: T1, BAG3 full length (Homo sapiens, UniProt O95817); test: SPR binding on full-length BAG3; conditions: Biacore T200, 25 °C, 1:1 model; for Kd: read-out: BAG3 FULL KD ± SD
T1 construct: purchased Novus Biologicals (Littleton, Colorado)
Experimental: (§1) Recombinant human BAG3 protein (Bcl2‐associated athanogene 3) was obtained from Novus Biologicals (Littleton, Colorado), while the BAG3 domain (BAG3‐BD) was sourced from ARETA International S.r.l. (Gerenzano, Italy). We used (Z)‐ethyl 2‐(5‐(3,4‐dihydroxybenzylidene)‐2,4‐dioxothiazolidin‐3‐yl)acetate (LK4), a BAG3 inhibitor previously identified by our group.^[ [13] ^] SPR spectroscopy was performed using a Biacore T200 optical biosensor with CM5 sensor chips (Cytiva, Marlborough, USA) to assess the affinity of synthesized molecules for BAG3 and BAG‐BD. BAG3 and BAG‐BD were immobilized on CM5 sensor chip using standard amine‐coupling protocol.^[ [15] ^, [42] ^, [43] ^] BAG3 protein (0.067 μg μL^−1 in 10 mM CH3COONa, pH 4.5) was immobilized at a flow rate of 10 μL min^−1, achieving a surface density of 14 kRU, while BAG3‐BD (0.38 μg μL^−1 in 10 mM CH3COONa, pH 4.5) reached a density of 4 kRU. For the experiments, BAG3 and BAG‐BD surfaces, as well as an unmodified reference surface, were prepared for simultaneous analysis. Compounds 1–10 and LK4 were initially dissolved to 10 mM in 100% DMSO, then diluted 1:20 (v/v) in PBS‐P buffer (0.2 M phosphate buffer, 27 mM KCl, 1.37 M NaCl, 0.5% surfactant P20) resulting in a final DMSO concentration of 5.0%. The compounds were injected in a concentration series (1:2 dilution, 10 different concentrations) ranging from 0 to 100 μM, using 96‐well plates. SPR experiments were conducted at 25 °C with a flow rate of 20 μL min^−1, featuring a 90 s association phase followed by a 400 s dissociation phase. Changes in mass, recorded as resonance units (RU), were used to quantify binding responses, while K D values were determined using Biaevaluation software by globally fitting the double‐referenced association and dissociation data to a 1:1 interaction model. (See Figure S43–S56, Supporting Information).

BAG3-BD = biological target: T2, BAG3-BD (Homo sapiens, UniProt O95817); test: SPR binding on BAG3 BAG domain; conditions: Biacore T200, 25 °C, 1:1 model; for Kd: read-out: BAG3–BD KD ± SD
T2 construct: the BAG3 domain (BAG3‐BD) was sourced from ARETA International S.r.l; (Gerenzano, Italy); purchased ARETA International S.r.l
T2 sequence (O95817 421-498 limits assumed): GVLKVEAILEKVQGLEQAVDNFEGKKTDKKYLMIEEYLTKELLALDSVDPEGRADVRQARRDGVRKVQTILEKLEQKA
Experimental: as §1

HeLa cells = test system: HeLa cells; design: method as in PMID 29926854; conditions: reported value; read-out: IC50 in HeLa cell line; cited from earlier work

T1 sequence (O95817 whole entry): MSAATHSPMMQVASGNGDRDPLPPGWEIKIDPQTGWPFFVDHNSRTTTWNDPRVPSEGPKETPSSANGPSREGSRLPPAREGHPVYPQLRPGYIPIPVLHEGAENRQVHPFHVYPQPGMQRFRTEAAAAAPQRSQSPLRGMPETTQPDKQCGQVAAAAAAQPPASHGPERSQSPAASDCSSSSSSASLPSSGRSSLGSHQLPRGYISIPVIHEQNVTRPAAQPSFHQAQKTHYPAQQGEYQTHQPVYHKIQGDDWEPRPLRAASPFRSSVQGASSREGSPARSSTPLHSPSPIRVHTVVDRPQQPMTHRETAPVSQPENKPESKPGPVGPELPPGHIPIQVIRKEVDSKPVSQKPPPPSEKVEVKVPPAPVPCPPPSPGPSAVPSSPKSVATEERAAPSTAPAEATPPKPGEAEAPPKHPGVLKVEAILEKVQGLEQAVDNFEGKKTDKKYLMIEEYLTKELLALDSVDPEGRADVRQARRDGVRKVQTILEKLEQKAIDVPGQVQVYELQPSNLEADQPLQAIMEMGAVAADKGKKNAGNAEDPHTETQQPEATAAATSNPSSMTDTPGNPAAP

Compound	BAG3 FULL KD ± SD (BAG3 full length)	Kd (BAG3 full length)	BAG3–BD KD ± SD (BAG3-BD)	Kd (BAG3-BD)	IC50 (HeLa cells)
O=C(OCc1cn(COCc2ccccc2)nn1)c1cccc([N+](=O)[O-])c1 [Compound 1, (1‐((Benzyloxy)methyl)‐1H‐1,2,3‐triazol‐4‐yl)methyl 3‐nitrobenzoate]	low micromolar range	3.31 ± 0.18 µM	low micromolar range	1870 ± 30 nM	
O=C(OCc1cn(Cc2cccc3ccccc23)nn1)c1cccc([N+](=O)[O-])c1 [Compound 3, (1‐(Naphthalen‐1‐ylmethyl)‐1H‐1,2,3‐triazol‐4‐yl)methyl 3‐nitrobenzoate]	not able to bind; also recorded: No binding		not able to bind		
Cc1cc(C)n(-c2cccc(Cn3cc(COC(=O)c4cccc([N+](=O)[O-])c4)nn3)c2)n1 [Compound 4, (1‐(3‐(3,5‐Dimethyl‐1H‐pyrazol‐1‐yl)benzyl)‐1H‐1,2,3‐triazol‐4‐yl)methyl 3‐nitrobenzoate]	not able to bind; also recorded: No binding		not able to bind		
O=C(OCc1cn(Cc2ccc3ccccc3n2)nn1)c1cccc([N+](=O)[O-])c1 [Compound 5, (1‐(Quinolin‐2‐ylmethyl)‐1H‐1,2,3‐triazol‐4‐yl)methyl 3‐nitrobenzoate]		12.5 ± 2.26 µM		8270 ± 980 nM	
O=C(OCc1cn(Cc2ccc3ccccc3n2)nn1)c1ccnc(Cl)c1 [Compound 6, (1‐(Quinolin‐2‐ylmethyl)‐1H‐1,2,3‐triazol‐4‐yl)methyl 2‐chloroisonicotinate]		24 ± 4.6 µM		2780 ± 880 nM	
Nc1ccc(C(=O)OCc2cn(Cc3ccc4ccccc4n3)nn2)cc1Br [Compound 7, (1‐(Quinolin‐2‐ylmethyl)‐1H‐1,2,3‐triazol‐4‐yl)methyl 4‐amino‐3‐bromobenzoate]		11.4 ± 2.43 µM		6320 ± 120 nM	
O=C(OCc1cn(Cc2ccc3ccccc3n2)nn1)c1ccccc1I [Compound 8, (1‐(Quinolin‐2‐ylmethyl)‐1H‐1,2,3‐triazol‐4‐yl)methyl 2‐iodobenzoate]		12.6 ± 1.2 µM		2430 ± 90 nM	
Cc1cc(C)n(-c2cccc(Cn3cc(COC(=O)c4ccc(N)c(Br)c4)nn3)c2)n1 [Compound 9, (1‐(3‐(3,5‐Dimethyl‐1H‐pyrazol‐1‐yl)benzyl)‐1H‐1,2,3‐triazol‐4‐yl)methyl 4‐amino‐3‐bromobenzoate]	did not show the ability to bind; also recorded: No binding				
Nc1ccc(C(=O)OCc2cn(Cc3cccc4ccccc34)nn2)cc1Br [Compound 10, (1‐(Naphthalen‐1‐ylmethyl)‐1H‐1,2,3‐triazol‐4‐yl)methyl 4‐amino‐3‐bromobenzoate]	did not show a satisfactory binding; also recorded: No binding				
CCOC(=O)CN1C(=O)S/C(=C\c2ccc(O)c(O)c2)C1=O [LK4, (Z)‐ethyl 2‐(5‐(3,4‐dihydroxybenzylidene)‐2,4‐dioxothiazolidin‐3‐yl)acetate]					> 50 µM

— paper PMC12530843, “Identification of a New Interesting BAG3 Modulator Able to Disrupt Cancer‐Related Pathways” (Chemmedchem, 2025)
